The record followed here is the OPERA property sets (Mansouri et al. 2018).

Details in the first data set: not given
For orientation: boiling point means the temperature of boiling at a given pressure. For `CCCCOCC1CO1` (configuration not stated), the boiling point was 165 °C, the log10 vapour pressure (mmHg) was 0.505 and the ready biodegradability entry is reported as “readily biodegradable”. One may read the melting point as the temperature, or range, at which the solid turns liquid. For the compound `O=C(Cc1ccccc1)c1ccccc1`, the boiling point was 320 °C, the log10 vapour pressure (mmHg) was -3.74 and the melting point came out at 60 °C. Consider `Oc1ccccc1I`, for which the melting point was 43 °C and the ready biodegradability result was “not readily biodegradable”.

As for `CCCCCCCCCCCN`, the boiling point is 242 °C and the melting point was 17 °C. With `O=S(=O)(O)CCNC1CCCCC1`, the melting point was 320 °C. `CC(=O)c1ccc(C)nc1` displayed a melting point of 17.6 °C. For the compound `CC(C)OC(=O)C(C)O` (configuration not stated), the boiling point is 167 °C. For the compound `ClC=CCCl`, the ready biodegradability entry is reported as “not readily biodegradable”. On to `CCCCCCCCNCCCCCCCC`, for which the boiling point is 298 °C, the melting point is 35.5 °C and the ready biodegradability result was “readily biodegradable”.

In turn, `CCCOC(=O)c1ccccc1O` gave a boiling point of 239 °C and a melting point of 97 °C. On to `CC(C)(O)CCCC1=CCC(C=O)CC1` (configuration not stated), for which the melting point was -30 °C and the ready biodegradability result is given as “readily biodegradable”.

`COc1nc(C)nc(NC(=O)NS(=O)(=O)c2ccccc2OCCCl)n1` had a log10 Koc (L/kg) of 2.02 and a melting point of 186 °C. For the compound `OCc1cccc(F)c1`, the boiling point turned out to be 201 °C.

As to `CCN(CC)C(=S)[S-].[Na+]`, the melting point stood at 98 °C. On the same count and under the same terms, as for `NC12CC3CC(CC(C3)C1)C2`, the figure is 180 °C. On the same count and under the same terms, with `C=Cc1ccc(F)cc1` the figure was -34.5 °C. `CCCCCCc1ccc2ccccc2c1` displayed a boiling point of 324 °C and a melting point of -3 °C. For `CC1Cc2ccccc2CC1C` (configuration not stated), the melting point was -5 °C. In the case of `C=COCCO`, the boiling point is 142 °C.

For the compound `CCCN(CCC)c1c([N+](=O)[O-])cc(C(C)C)cc1[N+](=O)[O-]`, the log10 Koc (L/kg) is 4 and the log10 vapour pressure (mmHg) was -4.52. `O=C(c1cccs1)c1cccs1` came in with a boiling point of 326 °C and a melting point of 90 °C. Take `Nc1ccc(Br)cc1`: the log10 Koc (L/kg) was 1.96 and the melting point stood at 66.4 °C. Regarding `O=Cc1ccccc1[N+](=O)[O-]`, the log10 vapour pressure (mmHg) is -1.75 and the melting point was 43.5 °C. Regarding `CC(C)Br`, the boiling point stood at 59.5 °C, the log10 vapour pressure (mmHg) amounted to 2.34, the melting point was -89 °C and the ready biodegradability result is “readily biodegradable”.

The compound `C=C(C)C(N)=O` yielded a log10 vapour pressure (mmHg) of -1.07 and a melting point of 110 °C. On to `C=CC(=O)N(C)C`, for which the ready biodegradability result is “not readily biodegradable”. `CCOC(=O)CCC(=O)OCC`: the boiling point is 218 °C, the log10 vapour pressure (mmHg) is -1.36 and the melting point was -21 °C. The compound `NCC1CCNCC1` registered a boiling point of 200 °C and a melting point of 25 °C. In turn, `O=C(CCCN1CCC(O)(c2ccc(Br)cc2)CC1)c1ccc(F)cc1` gave a melting point of 155 °C. On the same count and under the same terms, as for `O=C(NCC1CCCCN1)c1cc(OCC(F)(F)F)ccc1OCC(F)(F)F` (configuration not stated), the figure is 146 °C; as for `CC(=O)N(c1ccccc1)c1ccccc1`, 103 °C. As to `CS(=O)(=O)NC(=O)c1cc(Oc2ccc(C(F)(F)F)cc2Cl)ccc1[N+](=O)[O-]`, the log10 Koc (L/kg) was 1.78 and the melting point was found to be 220 °C. As for `CN(C)c1cccc2ccccc12`, the boiling point was 280 °C. Turning to `O=Cc1ccc(CO)o1`, the melting point turned out to be 31.5 °C. The compound `ClC1CC2CCC1C2` (configuration not stated) returned a boiling point of 162 °C and a melting point of -5 °C. The compound `CNC(=O)O/N=C/C(C)(C)S(C)(=O)=O` came in with a log10 Koc (L/kg) of 0.42, a log10 vapour pressure (mmHg) of -4.05 and a melting point of 141 °C. Turning to `CC1=C(C)C(=O)C=CC1=O`, the melting point is 55 °C.

On to `CCCCOC(=O)OCCCC`, for which the boiling point was determined as 170 °C.

`O=[N+]([O-])c1ccccc1CO` gave a boiling point of 270 °C and a melting point of 74 °C. In turn, `Oc1c(Cl)cccc1-c1ccccc1` showed a melting point of 6 °C. With `CN(C)[C@@H]1C(O)=C(C(N)=O)C(=O)[C@@]2(O)C(O)=C3C(=O)c4c(O)cccc4[C@@](C)(O)[C@H]3C[C@@H]12.Cl`, the melting point came to 222 °C.

As for `[O-][n+]1ccccc1S`, the melting point is 70.5 °C. Take `[C-]#[N+]c1ccccc1`: the log10 vapour pressure (mmHg) stood at 0.381. Compound `Nc1ccc(S(=O)(=O)c2ccc(N)cc2)cc1` displayed a melting point of 176 °C.

The compound `CCCCCOc1ccccc1` yielded a boiling point of 200 °C. `CC(=O)OCC1=C(C(=O)O)N2C(=O)[C@@H](NC(=O)Cc3cccs3)[C@H]2SC1`: the melting point is 160 °C. Compound `CCOP(=S)(OCC)SCSC(C)(C)C` displayed a log10 Koc (L/kg) of 2.82, a log10 vapour pressure (mmHg) of -3.49 and a melting point of -29.2 °C.

Compound `O=S(=O)(O)C(F)(F)F` displayed a boiling point of 166 °C and a log10 vapour pressure (mmHg) of -1. With `CC(CCl)CCCl` (configuration not stated), the boiling point was found to be 168 °C.

In the case of `O=S(=O)(c1ccccc1)c1ccccc1`, the boiling point came out at 279 °C and the melting point was 128 °C.

As to `c1ccc(-c2cnc(-c3ccc(-c4ncc(-c5ccccc5)o4)cc3)o2)cc1`, the melting point stood at 245 °C. The compound `CN1C(C)(C)CCCC1(C)C` showed a boiling point of 147 °C. `CC(=O)Nc1ccc(-c2ccc(N)cc2)cc1`: the ready biodegradability entry is reported as “not readily biodegradable”. `O=C=NC1CCCCC1` had a boiling point of 172 °C, a log10 vapour pressure (mmHg) of 0.0086 and a melting point of -80 °C. `CC(=O)Oc1cccc2ccccc12` registered a melting point of 44.5 °C.

As for `CC(C)(O)C(=O)O`, the boiling point came out at 212 °C, the log10 vapour pressure (mmHg) is -2.06 and the melting point amounted to 82.5 °C. The compound `CC(F)(F)CC(F)(F)F` gave a boiling point of 40 °C.

`O=C(C=Cc1ccco1)C=Cc1ccco1` returned a melting point of 60.5 °C. Consider `ClC=CBr`, for which the boiling point was 84.6 °C and the melting point was -86.7 °C. As to `O=C1CCCCCCCCCCCN1`, the melting point stood at 152 °C and the ready biodegradability result is listed as “not readily biodegradable”. `Clc1cccc2c1Oc1ccccc1O2` had a log10 vapour pressure (mmHg) of -4.05 and a melting point of 104 °C.

For `CCCCCCOCCO`, the boiling point worked out at 208 °C, the log10 vapour pressure (mmHg) was -0.81 and the melting point was -45.1 °C. `O=P(O)(O)C(Cl)(Cl)P(=O)(O)O` registered a melting point of 250 °C.

Take `CC=Cc1ccc(O)c(OC)c1`: the boiling point is 266 °C, the log10 vapour pressure (mmHg) was -1.92 and the melting point was found to be 11.8 °C. Regarding `CC(C)(Br)Br`, the boiling point was found to be 115 °C. `CCCc1ccc(C)cc1`: the boiling point was 183 °C, the log10 vapour pressure (mmHg) turned out to be 0.043 and the melting point was -63.6 °C. `COc1cc(O)c2c(c1)OC(c1ccc(O)cc1)CC2=O` (configuration not stated) had a melting point of 152 °C. With `CC(C)(c1ccccc1)c1ccccc1`, the boiling point stood at 282 °C and the melting point worked out at 29 °C. As to `O=C(O)c1ccc(C(=O)c2ccccc2)cc1`, the melting point is 199 °C.

The data set is the same for the next values; noted with them: fish.
Compound `Brc1ccc(Oc2c(Br)cccc2Br)c(Br)c1` gave a log10 BCF of 5.88. Still for that read-out and setting: as for `O=C1CCCCCCCCCCCN1`, the figure is 0.41.
